Data reported in patent US20050150764A1 (priority 2001, published 2005).

Tests used:
[1] = tested on: larvae of the mustard beetle (Phaedon cochleariae); assay: Phaedon larvae test (Example B); format: in vivo; conditions: 1000 ppm, after 7 days, cabbage leaves dipped
Description: (§1) Phaedon larvae Test [table] To produce a suitable preparation of active compound, 1 part by weight of active compound is mixed with the stated amounts of solvent and emulsifier, and the concentrate is diluted with emulsifier-containing water to the desired concentration. Cabbage leaves (Brassica oleracea) are treated by being dipped into the preparation of active compound at the desired concentration and are populated with larvae of the mustard beetle (Phaedon cochleariae) while the leaves are still moist. After the desired period of time, the kill in % is determined. 100% means that all of the beetle larvae have been killed: 0% denotes that no beetle larvae have been killed.

[2] = tested on: caterpillars of the army worm (Spodoptera frugiperda); assay: Spodoptera frugiperda test (Example E); format: in vivo; conditions: 1000 ppm, after 7 days, cabbage leaves dipped
Description: as §1, with “Spodoptera frugiperda” for “Phaedon larvae”, “caterpillars” for “larvae”, “army worm (Spodoptera frugiperda)” for “mustard beetle (Phaedon cochleariae)”, “caterpillars” for “beetle larvae”

[3] = logP (pH 2); conditions: for logP (pH 2): intermediates of formula (VIIa), Table 6
[4] = tested on: caterpillars of the army worm (Spodoptera frugiperda); assay: Activity duration test: Spodoptera frugiperda (Example G); format: in vivo; conditions: 20 ppm, cotton plants sprayed
Description: (§2) Activity Duration Test: Spodoptera frugiperda [table] To produce a suitable preparation of active compound, 1 part by weight of active compound is mixed with the stated amounts of solvent and emulsifier, and the concentrate is diluted with emulsifier-containing water to the desired concentration. Cotton plants (Gossypium hirsutum) are sprayed with a preparation of the active compound in the desired concentration. After the number of days indicated, caterpillars of the army worm (Spodoptera frugiperda) are placed onto the treated leaves in infection chambers. After the desired period of time, the kill in % is determined. 100% means that all of the caterpillars have been killed: 0% denotes that no caterpillars have been killed.

[5] = tested on: Heliothis virescens caterpillars; assay: Activity duration test: Heliothis virescens (Example F); format: in vivo; conditions: 20 ppm, cotton plants sprayed
Description: as §2, with “Heliothis virescens” for “Spodoptera frugiperda”, “indicated, Heliothis virescens” for “indicated,”, “caterpillars” for “caterpillars of the army worm (Spodoptera frugiperda)”

[6] = tested on: Heliothis virescens caterpillars; assay: Heliothis virescens test (Example A); format: in vivo; conditions: 500 ppm, after 6 days, soya shoots dipped
Description: as §1, with “Heliothis virescens” for “Phaedon larvae”, “Soya shoots (Glycine max)” for “Cabbage leaves (Brassica oleracea)”, “Heliothis virescens caterpillars” for “larvae of the mustard beetle (Phaedon cochleariae)”, “caterpillars” for “beetle larvae”

[7] = tested on: caterpillars of the army worm (Spodoptera exigua); assay: Spodoptera exigua test (Example D); format: in vivo; conditions: 500 ppm, after 6 days, cabbage leaves dipped
Description: as §1, with “Spodoptera exigua” for “Phaedon larvae”, “caterpillars” for “larvae”, “army worm (Spodoptera exigua)” for “mustard beetle (Phaedon cochleariae)”, “caterpillars” for “beetle larvae”

[8] = tested on: caterpillars of the cabbage moth (Plutella xylostella); assay: Plutella test (Example C); format: in vivo; conditions: 500 ppm, after 6 days, cabbage leaves dipped
Description: as §1, with “Plutella test” for “Phaedon larvae Test”, “caterpillars” for “larvae”, “cabbage moth (Plutella xylostella)” for “mustard beetle (Phaedon cochleariae)”, “caterpillars” for “beetle larvae”

[9] = tested on: Lucilia cuprina larvae; assay: Blowfly larvae test/development inhibition activity (Example I); format: in vivo; conditions: 100% = no flies hatched
Description: Blowfly Larvae Test/Development Inhibition Activity
(§3) 20 mg of active substance are dissolved in 1 ml of dimethyl sulphoxide; lower concentrations are prepared by dilution with distilled water.
About 20 Lucilia cuprina larvae are introduced into a test tube containing 1 cm^3 of horse meat and 0.5 ml of the test preparation of active compound. The efficacy of the active compound preparation is determined after 24 and 48 hours. The test tubes are transferred to beakers whose bases are covered with sand. After 2 more days, the test tubes are removed and the pupae are counted.
The activity of the active compound preparation is assessed in accordance with the number of flies which have hatched following 1.5 times the development period of an untreated control. 100% means that no flies have hatched; 0% means that all of the flies hatched normally.

[10] = tested on: adult Musca domestica, strain: Reichswald (OP, SP, carbamate resistant); assay: Test with flies (Musca domestica) (Example H); format: in vivo
Description: Test with Flies (Musca domestica)
as §3
[…] After the filter disks have dried, 25 test organisms are transferred to the Petri dishes and covered.
The activity of the active compound preparation is determined after 1, 3, 5, 24 and 48 hours. 100% means that all the flies were killed; 0% means that none of the flies was killed.

[11] = Concentration 4 μg fly, reading time not given
[12] = Concentration 20 μg fly, reading time not given
[13] = Concentration 100 μg fly, reading time not stated (1, 3, 5, 24 and 48 hours in method)

logP (pH 2)/ m.p. [° C.] (logP part) | Compound | kill [1] [%] | kill [2] [%] | % Activity/Kill ([9]; Concentration 20 ppm) [%] | % Activity/Kill ([9]; Concentration 100 ppm) [%] | other results
4.03/229 | N#Cc1cccc(C2=NN(C(=O)Nc3ccc(C(F)(F)F)cc3)CCC2n2cc(Cl)cn2)c1 (stereo not drawn) [Example 16] | 100 | 100 | – | – | –
– | N#Cc1cccc(C(=O)C(CCCl)n2cc(Cl)cn2)c1 (stereo not drawn) [IV-1, 3′-cyano-2-(4-chloropyrazol-1-yl)-4-chlorobutyrophenone] | – | – | – | – | logP [3]: 2.95
4.82/197 | O=C(Nc1ccc(OC(F)(F)F)cc1)N1CCC(n2cc(Cl)cn2)C(c2cccc(Br)c2)=N1 (stereo not drawn) [Example 12] | 100 | 100 | – | – | –
– | O=C1OCCC1C(=O)c1cccc(F)c1 (stereo not drawn) [VIIa-3] | – | – | – | – | logP (pH 2) [3]: 1.77
4.58/198 | O=C(Nc1ccc(Cl)cc1)N1CCC(n2cc(Cl)cn2)C(c2cccc(Br)c2)=N1 (stereo not drawn) [Example 11] | 100 | 100 | – | – | –
– | N#Cc1cccc(C(=O)C2CCOC2=O)c1 (stereo not drawn) | – | – | – | – | logP [3]: 1.48
– | N#Cc1cccc(C(=O)CCCCl)c1 [VI-1, 3′-cyano-4-chlorobutyrophenone] | – | – | – | – | logP [3]: 2.49
4.77/196 | O=C(Nc1ccc(C(F)(F)F)cc1)N1CCC(n2cc(Cl)cn2)C(c2cccc(Br)c2)=N1 (stereo not drawn) [Example 13] | – | – | – | – | kill [6]: 100%; kill [7]: 100%; kill [8]: 100%
4.44/182 | N#Cc1cccc(C2=NN(C(=O)Nc3ccc(SC(F)(F)F)cc3)CCC2n2cc(Cl)cn2)c1 (stereo not drawn) [Example 17] | – | – | – | – | kill [6]: 100%; kill [7]: 100%; kill [8]: 100%
4.73/158 | O=C(Nc1ccc(Cl)cc1)N1CCC(n2cc(Cl)cn2)C(c2cccc(OC(F)(F)F)c2)=N1 (stereo not drawn) [Example 10] | 100 | 100 | – | – | –
– | O=C1OCCC1C(=O)c1cccc(C(F)(F)F)c1 (stereo not drawn) [VIIa-2] | – | – | – | – | logP (pH 2) [3]: 2.42
4.49/203 | O=C(Nc1ccc(Cl)cc1)N1CCC(n2cc(Cl)cn2)C(c2cccc(Cl)c2)=N1 (stereo not drawn) [Example 8] | 100 | 100 | – | – | –
4.81/166 | O=C(Nc1ccc(SC(F)(F)F)cc1)N1CCC(n2cc(Cl)cn2)C(c2cccc(F)c2)=N1 (stereo not drawn) [Example 15] | – | – | – | – | Degree of kill in % ([4]; infection after 5 days): 90%; Degree of kill in % ([4]; infection after 12 days): 90%; Degree of kill in % ([4]; infection after 19 days): 80%; Degree of kill in % ([4]; infection after 26 days): 90%; kill [6]: 100%; kill [7]: 100%; kill [8]: 100%
– | N#Cc1cccc(C(=O)C(Br)CCCl)c1 (stereo not drawn) [Example V-1, 3′-cyano-2-bromo-4-chlorobutyrophenone] | – | – | – | – | logP [3]: 3.09
4.37/194 | O=C(Nc1ccc(C(F)(F)F)cc1)N1CCC(n2cc(Cl)cn2)C(c2cccc(F)c2)=N1 (stereo not drawn) [Example 4] | 100 | 100 | – | – | –

Compound | logP (pH 2)/ m.p. [° C.] (logP part) | kill [1] [%] | kill [2] [%] | % Activity/Kill ([9]; Concentration 20 ppm) [%] | % Activity/Kill ([9]; Concentration 100 ppm) [%] | other results
O=C(Nc1ccc(C(F)(F)F)cc1)N1CCC(n2cc(Cl)cn2)C(c2cccc(C(F)(F)F)c2)=N1 (stereo not drawn) [Example 14] | 4.79/176 | – | – | – | – | Degree of kill in % ([4]; infection after 5 days): 90%; Degree of kill in % ([4]; infection after 12 days): 80%; Degree of kill in % ([4]; infection after 19 days): 70%; Degree of kill in % ([4]; infection after 26 days): 90%; kill ([5]; infection after 5 days): 100%; kill ([5]; infection after 12 days): 100%; kill ([5]; infection after 19 days): 100%; kill ([5]; infection after 26 days): 100%; kill [6]: 100%; kill [7]: 100%; kill [8]: 100%
O=C(Nc1ccc(Cl)cc1)N1CCC(n2cc(Cl)cn2)C(c2cccc(F)c2)=N1 (stereo not drawn) [Example 5] | 4.18/213 | 100 | 100 | 0 | 100 | –
O=C(Nc1ccc(Cl)cc1)N1CCC(n2cc(Cl)cn2)C(c2cccc(C(F)(F)F)c2)=N1 (stereo not drawn) [Example 2] | 4.60/199 | 100 | 100 | 100 | 100 | % Activity/Kill [10, 11]: 0%; % Activity/Kill [10, 12]: 30%; % Activity/Kill [10, 13]: 95%; % Activity/Kill ([9]; Concentration 4 ppm): 0%
O=C(Nc1ccc(C(F)(F)F)cc1)N1CCC(n2cc(Cl)cn2)C(c2cccc(Cl)c2)=N1 (stereo not drawn) [Example 9] | 4.69/199 | 100 | 100 | 0 | 100 | % Activity/Kill [10, 11]: 0%; % Activity/Kill [10, 12]: 85%; % Activity/Kill [10, 13]: 95%
O=C(Nc1ccc(OC(F)(F)F)cc1)N1CCC(n2cc(Cl)cn2)C(c2cccc(C(F)(F)F)c2)=N1 (stereo not drawn) [Example 3] | 4.83/192 | 100 | 100 | 100 | 100 | % Activity/Kill [10, 11]: 0%; % Activity/Kill [10, 12]: 50%; % Activity/Kill [10, 13]: 95%; % Activity/Kill ([9]; Concentration 4 ppm): 0%
O=C(Nc1ccc(OC(F)(F)F)cc1)N1CCC(n2cc(Cl)cn2)C(c2cccc(F)c2)=N1 (stereo not drawn) [Example 6] | 4.43/148 | 100 | 100 | 0 | 100 | % Activity/Kill [10, 11]: 0%; % Activity/Kill [10, 12]: 50%; % Activity/Kill [10, 13]: 99%
O=C(Nc1ccc(SC(F)(F)F)cc1)N1CCC(n2cc(Cl)cn2)C(c2cccc(C(F)(F)F)c2)=N1 (stereo not drawn) [Example 23] | 5.21/188 | – | – | 0 | 100 | % Activity/Kill [10, 12]: 0%; % Activity/Kill [10, 13]: 90%
O=C(Nc1ccc(OC(F)(F)F)cc1)N1CCC(n2cc(Cl)cn2)C(c2cccc(Cl)c2)=N1 (stereo not drawn) [Example 7] | 4.73/181 | 100 | 100 | 100 | 100 | % Activity/Kill [10, 11]: 0%; % Activity/Kill [10, 12]: 50%; % Activity/Kill [10, 13]: 99%; % Activity/Kill ([9]; Concentration 4 ppm): 0%
